The results in this text go back to a melting point compilation (Tetko et al.).

Structures are written as SMILES.

Take `O=C(O)c1ccc2c(=O)n3c(nc2c1)CCCCC3`: the melting point (in general, the temperature of the solid-liquid transition) is 276 to 278 °C.
To `Cc1cccc(NC(=O)CCN)n1` belongs 105 to 106 °C.
`COc1cc(C=O)ccc1OCC(=O)c1ccc(Cl)c(Cl)c1` came in with a melting point of 137 to 139 °C.
To `COc1ccc(CCC(=O)O)cc1N` belongs 121 to 123 °C; to `Clc1nc(CN2CCOCC2)nc2scc(-c3cccs3)c12`, 105 to 107 °C.
`COc1ccc(C(=O)O)cc1S(=O)(=O)N1CCCC1` had a melting point of 218 to 220 °C.
To `CC1Cc2ccccc2N1c1ccccc1C(=O)O` (stereo unspecified) belongs 124 to 126 °C.
With `CCc1cc(O)ccc1Cl` the figure was 45 to 50 °C; with `Cc1nc(COc2ccc(C(=O)O)cc2)no1`, 197 to 199 °C.
With `Cc1ccc(/C=C/C(=O)O)s1` the figure was 160 to 162 °C; with `O=C(CCl)Nc1ccc(OCc2ccccc2)cc1`, 118 to 120 °C.
As for `O=C(Nc1cn[nH]c1)OCC(F)(F)F`, the melting point was 151 to 153 °C.
With `O=C(O)C(F)(F)c1cccc(Cl)c1` the figure was 75 to 77 °C.
`Nc1ccc(S(=O)(=O)NC2CN3CCC2CC3)cc1` (stereo unspecified) registered a melting point of 168 to 170 °C.
With `COc1cc(CC#N)ccc1SC(F)(F)F` the figure was 59 to 61 °C; with `Cc1nc(N)n[nH]1`, 142 to 144 °C; with `O=C1Nc2cc(F)ccc2C1=O`, 184 to 186 °C.
In the case of `CC(C)(C)OC(=O)N1CCC(C(=O)NN)CC1`, the melting point was 98 to 100 °C.
Take `Cc1noc(C)c1CSc1ccccc1C(=O)O`: the melting point lay within 192 to 194 °C.
In the case of `CCOc1ccc(-c2cc(N)on2)cc1`, the melting point was in the range of 126 to 128 °C.
Turning to `NNC(=O)N1CCSCC1`, the melting point was in the range of 129 to 131 °C.
Turning to `CN(C)C1CCN(c2ccc(N)cc2)CC1`, the melting point lay in the range of 119 to 121 °C.
Take `O=C(O)CC1CCC(c2ccccc2)CC1` (stereo unspecified): the melting point fell in the range of 83 to 85 °C.
With `O=C(O)c1ccc(Br)cc1I` the figure was 170 to 172 °C; with `CCCc1cc(N)n(C)n1`, 68 to 70 °C; with `CSCCC(NC(=O)c1ccccc1Br)C(=O)O` (stereo unspecified), 171 to 173 °C.
With `Cc1cc(-c2nc3cc(F)ccc3n2C)ccc1N`, the melting point lay within 174 to 176 °C.
With `NC(=S)N1CCc2sccc2C1` the figure was 109 to 111 °C; with `Cn1ccc(C(=O)NCCC(=O)O)cc1=O`, 214 to 216 °C.
To `COc1ccccc1C(C)CC(=O)O` (stereo unspecified) belongs 50 to 52 °C; to `O=C1Nc2c(cccc2C(F)(F)F)C1=O`, 187 to 189 °C.
With `O=C(O)Cc1csc(-c2cccc(C(F)(F)F)c2)n1` the figure was 109 to 111 °C; with `O=C(O)C1CCCN(C(=O)c2ccccc2)C1` (stereo unspecified), 189 to 191 °C.
The molecule `O=C(c1cc(S(=O)(=O)Cl)c[nH]1)N1CCCC1` registered a melting point of 191 to 193 °C.
`O=C(O)c1cc2c(F)cccc2s1` yielded a melting point of 214 to 216 °C.
To `O=C(O)c1ccncc1Br` belongs 237 to 239 °C.
Consider `COC(=O)C(=O)CC(=O)c1cc(OC)ccc1OC`, for which the melting point is 85 to 90 °C.
In turn, `NC(=S)CN1C(=O)CCC1=O` displayed a melting point of 156 to 158 °C.
To `O=C(CN1C(=O)CCC1=O)c1ccccc1` belongs 144 to 146 °C; to `Clc1ccc(OCC2CO2)cc1` (stereo unspecified), 31 to 33 °C; to `Nc1nnc(-c2ccccc2)o1`, 243 to 245 °C.
For the molecule `NC(=O)c1cncc(O)c1`, the melting point lay within 249 to 251 °C.
To `COC(=O)NC(C(=O)O)C(C)C` (stereo unspecified) belongs 83 to 85 °C.
To `Cc1ccc(Br)c2cccnc12` belongs 34 to 36 °C; to `CC(C)c1ccc(-n2nnnc2S)cc1`, 100 to 102 °C.
Regarding `COc1ccc(C(=O)O)nc1Br`, the melting point fell in the range of 232 to 234 °C.
With `O=S1(=O)CC(O)C(NCc2ccco2)C1` (stereo unspecified) the figure was 139 to 141 °C.
For `O=C(O)CCC(=O)c1ccc(F)c(F)c1`, the melting point was in the range of 84 to 86 °C.
To `O=C1CN(C(c2ccccc2)c2ccccc2)C1` belongs 78 to 80 °C.
The molecule `COC(=O)c1coc(C(=O)CCl)c1` came in with a melting point of 97 to 99 °C.
In turn, `Nc1nc(-c2cccc(Cl)c2)cs1` yielded a melting point of 125 to 127 °C.
With `CS(=O)(=O)Cc1ccc(Cl)cc1N` the figure was 140 to 142 °C; with `CCC(C)C(C(=O)O)c1ccccc1` (stereo unspecified), 50 to 52 °C; with `Cc1ccccc1COc1ccccc1C(=O)O`, 103 to 105 °C.
With `O=[N+]([O-])c1ccccc1Nc1ccc(F)cc1F` the figure was 79 to 81 °C; with `CC1(C)NC(=O)N=C1N`, 259 to 261 °C; with `CC(=O)Nc1ccc(C(=O)O)nc1`, 204 to 206 °C.
Turning to `CCOc1ccc(C(C)=O)cc1CN1CCOCC1`, the melting point fell in the range of 33 to 37 °C.
To `CCC(C(=O)O)c1cccc(C(F)(F)F)c1` (stereo unspecified) belongs 41 to 43 °C; to `NS(=O)(=O)c1c(Cl)nc2ccccn12`, 174 to 176 °C.
As for `CCOc1ccc(S(=O)(=O)NN)cc1`, the melting point was 114 to 116 °C.
To `O=C(O)c1ccccc1NS(=O)(=O)c1cccc(C(F)(F)F)c1` belongs 157 to 159 °C.
Molecule `NS(=O)(=O)c1cnn(-c2cccc(C(F)(F)F)c2)c1` came in with a melting point of 162 to 164 °C.
With `CC(Br)c1ccc([N+](=O)[O-])cc1` (stereo unspecified) the figure was 33 to 35 °C; with `Cc1nc(S(=O)(=O)Oc2c(F)c(F)c(F)c(F)c2F)sc1C`, 98 to 100 °C; with `FC(F)(F)Cc1nnc2ccc(Cl)nn12`, 137 to 139 °C.
As for `Sc1nc2c(s1)CCCC2`, the melting point lay within 119 to 121 °C.
To `CCS(=O)(=O)c1ccc(C(=O)O)c(N)c1` belongs 184 to 186 °C; to `Nc1ccc(C(=O)NC2CCCCC2)cc1`, 175 to 177 °C.
Regarding `Cn1ccnc1-c1cc(N)[nH]n1`, the melting point was in the range of 167 to 169 °C.
With `O=S(=O)(Cl)c1ccc2c(c1)S(=O)(=O)CC2`, the melting point is 128 to 130 °C.
To `CNC(CO)c1cccc(Br)c1` (stereo unspecified) belongs 79 to 81 °C.
To `Cc1ccc(C)c2c(C)c(C(=O)O)oc12` belongs 239 to 241 °C; to `NC(=O)NC(CCC(=O)O)C(=O)O` (stereo unspecified), 161 to 163 °C; to `ClCc1coc(-c2ccc(Br)cc2)n1`, 112 to 114 °C.
With `O=C(O)C=C1CCC1` the figure was 89 to 91 °C; with `CCCC1(c2ccccc2)NC(=O)NC1=O` (stereo unspecified), 172 to 174 °C.
In turn, `O=C(O)c1ccc(COc2ccc3ccccc3c2)o1` yielded a melting point of 171 to 173 °C.
With `N#CCCOc1ccc(Br)cc1`, the melting point lay in the range of 76 to 78 °C.
With `COc1cc(C(=O)O)sc1S(N)(=O)=O` the figure was 254 to 256 °C.
With `Cc1cc(N)n(-c2cccc(Br)c2)n1` the figure was 145 to 147 °C; with `O=C(O)c1csc(Br)c1`, 137 to 139 °C.
Molecule `N#CC(C(=O)CCl)c1nc(-c2ccccc2)cs1` (stereo unspecified) showed a melting point of 215 to 217 °C.
With `Cc1ncc2ccccn12` the figure was 46 to 48 °C; with `CCOC(=O)c1cnc2ccccc2c1Cl`, 37 to 39 °C.
With `O=C(O)c1cccc(OCc2cccnc2)c1` the figure was 195 to 197 °C; with `CN(C)Cc1nc(S)c2ccccc2n1`, 131 to 133 °C; with `CC(C)Oc1ccc(S(=O)(=O)N(C)C)cc1N`, 111 to 113 °C.
In turn, `CC(C)N(C)S(=O)(=O)c1ccc(NC(=O)CCl)cc1` returned a melting point of 118 to 120 °C.
`O=C(O)C1CCCN(C(=O)c2cccc3ccccc23)C1` (stereo unspecified) gave a melting point of 255 to 257 °C.
With `CCn1c(S)nnc1-c1ccc(Cl)cc1` the figure was 211 to 213 °C; with `Nc1cccc(C(=O)N2CCCCC2CCO)c1` (stereo unspecified), 129 to 131 °C; with `Cc1c(Cl)nc(N(C)C)nc1Cl`, 54 to 56 °C.
Turning to `Oc1cccc(-n2cnnn2)c1`, the melting point was in the range of 174 to 176 °C.
To `COc1c(N)cc(C(C)(C)C)cc1C(C)(C)C` belongs 79 to 81 °C; to `NC(=O)NC1(C(=O)O)CC1`, 189 to 191 °C.
`CC(NC(=O)CCl)C1CC1` (stereo unspecified): the melting point lay within 50 to 52 °C.
To `COc1ccc(S(=O)(=O)Cl)c([N+](=O)[O-])c1` belongs 75 to 79 °C; to `Nc1ccc(-c2cc[nH]c2)cc1`, 99 to 101 °C.
With `c1ccc(OCc2nc3ccccc3[nH]2)cc1` the figure was 163 to 165 °C; with `O=[N+]([O-])c1ccc(NCC2CCCO2)c(F)c1` (stereo unspecified), 68 to 70 °C.
The molecule `O=c1c(C(O)(O)C(F)(F)F)coc2ccc(Cl)cc12` came in with a melting point of 114 to 116 °C.
On to `Nc1cccc2ccncc12`, for which the melting point was in the range of 169 to 171 °C.
Molecule `O=C(CCl)Nc1ccc(NC(=O)c2cccs2)cc1` showed a melting point of 243 to 245 °C.
Consider `Cc1ccn2cc(C(=O)O)nc2c1`, for which the melting point fell in the range of 225 to 229 °C.
To `COC(=O)CCOc1ccc(N)cc1` belongs 51 to 53 °C.
The molecule `COC(=O)Cn1ncc2c(=O)[nH]cnc21` showed a melting point of 212 to 214 °C.
In turn, `NC(=O)c1ccn(-c2ccc(N)cc2)n1` registered a melting point of 230 to 232 °C.
With `Nc1cc(S(=O)(=O)NC2CC2)c(Cl)cc1F` the figure was 120 to 122 °C; with `Cc1cccc2c3c([nH]c12)C(N)CCC3` (stereo unspecified), 130 to 132 °C; with `Cc1cc(C)c2oc(N)nc2c1`, 197 to 199 °C.
To `Cc1cccc(-n2c(=O)[nH]c3cc(C(=O)O)ccc3c2=O)c1` belongs 344 to 346 °C; to `Nc1cc(Cl)ccc1N1CCC(CO)CC1`, 144 to 146 °C.
`Cc1nn(-c2ncc(C(F)(F)F)cc2Cl)c(C(F)(F)F)c1C(=O)O` came in with a melting point of 167 to 169 °C.
To `O=C(O)c1cc(/C=C/c2ccc(Cl)cc2)nc2ccc(Br)cc12` belongs 320 to 322 °C; to `O=c1[nH]c2ccc(NCc3ccccc3)cc2[nH]1`, 242 to 244 °C; to `CC(Cl)C(=O)NCC(=O)c1ccccc1` (stereo unspecified), 86 to 88 °C.
`CCOc1ccc(S(=O)(=O)N2CCOCC2)cc1N` showed a melting point of 165 to 167 °C.
To `CC(=O)NCc1ccc(C(=O)CCl)o1` belongs 125 to 127 °C.
To `NC(=O)Nc1ccc(N)cc1` belongs 155 to 157 °C.
Take `COc1cc(CN)ccc1OC(C)(C)C`: the melting point was in the range of 52 to 54 °C.
